Assay results as given in EPA's ToxValDB 9.5 (doi:10.2903/j.efsa.2008.147r).

Legend:
Daphnia magna = settings: chronic/long-term; duration: 21 days; reproduction
Aphidius rhopalosiphi = settings: not reported
Canidae = settings: chronic, oral, Dog Other, clinical signs
Apis mellifera = settings: acute; duration: 48 hours; dermal; mortality

SMILES: CC[C@H](C)[C@H]1O[C@]2(C=C[C@@H]1C)C[C@@H]1C[C@@H](C/C=C(\C)[C@@H](O[C@H]3C[C@H](OC)[C@@H](O[C@H]4C[C@H](OC)[C@@H](O)[C@H](C)O4)[C@H](C)O3)[C@@H](C)/C=C/C=C3\CO[C@@H]4[C@H](O)C(C)=C[C@@H](C(=O)O1)[C@]34O)O2.CO[C@H]1C[C@H](O[C@H]2[C@H](C)O[C@@H](O[C@@H]3/C(C)=C/C[C@@H]4C[C@@H](C[C@]5(C=C[C@H](C)[C@@H](C(C)C)O5)O4)OC(=O)[C@@H]4C=C(C)[C@@H](O)[C@H]5OC/C(=C\C=C\[C@@H]3C)[C@]54O)C[C@@H]2OC)O[C@@H](C)[C@@H]1O [Abamectin]
- NOEC (Daphnia magna): 1e-05 mg/L
- LD50 (Anas platyrhynchos; acute, oral, unspecified, mortality): ≤ 77 mg/kg-day
- NOEC (Anas platyrhynchos; reproductive, M): 1.33 mg/kg-day
- LC50 (Anas platyrhynchos; short-term, oral, feed, mortality): 48.6 mg/kg-day
- NOAEL (Rattus norvegicus; acute, clinical signs): 0.5 mg/kg-day
- LD50 (Rattus norvegicus; acute, oral, mortality): 8.7 mg/kg-day
- NOEC (Rattus norvegicus; chronic): 0.12 mg/kg-day
- LC50 (Tagia sp.; acute, duration: 14 days, mortality): 33 mg/kg
- NOEC (Tagia sp.; chronic/long-term): > 0.72 mg/kg
- LEL (Aphidius rhopalosiphi; mortality): 4.32 g/ha
- LEL (Aphidius rhopalosiphi; reproduction): 4.32 g/ha
- LC50 (Oncorhynchus mykiss; acute, duration: 96 hours, mortality): 3.6 ng/mL
- NOEC (Oncorhynchus mykiss; chronic/long-term, duration: 28 days): 0.00052 mg/L
- NOAEL (Canidae; duration: 18 weeks): 0.25 mg/kg-day
- NOAEL (Canidae; duration: 53 weeks): 0.25 mg/kg-day
- LD50 (Apis mellifera): 0.0022 µg/piece
